Results as given in publication PMC12138102 (Acta Pharmaceutica Sinica. B, 2025).

Columns and labels:
[1] = target: huBuChE (Homo sapiens, UniProt P06276); assay: BuChE inhibition, Ellman's assay; type: biochemical; details: for SI: Selectivity Index, huAChE and huBuChE
[2] = target: eeAChE (Electrophorus electricus, UniProt O42275); assay: AChE inhibition, Ellman's assay; type: biochemical
[3] = target: huAChE (Homo sapiens, UniProt P22303); assay: AChE inhibition, Ellman's assay; type: biochemical
[4] = target: eqBuChE (Equus caballus, UniProt P81908); assay: BuChE inhibition, Ellman's assay; type: biochemical, equine; details: for IC50: IC50 ± SD eqBuChE; for SI: Selectivity Index, eeAChE and eqBuChE
[5] = test system: APP/PS1 double-transgenic mice; assay: APP/PS1 mice, Morris Water Maze and tissue analyses; type: in vivo
[6] = test system: scopolamine-induced mice; assay: Scopolamine-induced mice dysmnesia, step-down passive avoidance task; type: in vivo, Kunming mice
[7] = test system: AlCl3-induced zebrafish AD model; assay: AlCl3-induced zebrafish AD model; type: in vivo; details: donepezil 3.0 μg/mL
[8] = test system: BuChE; assay: Reversibility of BuChE inhibition; type: biochemical; details: 0.1 × IC50, 120 min
[9] = plasma, donepezil 2.0 mg/kg, 8e 2.6 mg/kg

Sequence of eeAChE (O42275 24-633): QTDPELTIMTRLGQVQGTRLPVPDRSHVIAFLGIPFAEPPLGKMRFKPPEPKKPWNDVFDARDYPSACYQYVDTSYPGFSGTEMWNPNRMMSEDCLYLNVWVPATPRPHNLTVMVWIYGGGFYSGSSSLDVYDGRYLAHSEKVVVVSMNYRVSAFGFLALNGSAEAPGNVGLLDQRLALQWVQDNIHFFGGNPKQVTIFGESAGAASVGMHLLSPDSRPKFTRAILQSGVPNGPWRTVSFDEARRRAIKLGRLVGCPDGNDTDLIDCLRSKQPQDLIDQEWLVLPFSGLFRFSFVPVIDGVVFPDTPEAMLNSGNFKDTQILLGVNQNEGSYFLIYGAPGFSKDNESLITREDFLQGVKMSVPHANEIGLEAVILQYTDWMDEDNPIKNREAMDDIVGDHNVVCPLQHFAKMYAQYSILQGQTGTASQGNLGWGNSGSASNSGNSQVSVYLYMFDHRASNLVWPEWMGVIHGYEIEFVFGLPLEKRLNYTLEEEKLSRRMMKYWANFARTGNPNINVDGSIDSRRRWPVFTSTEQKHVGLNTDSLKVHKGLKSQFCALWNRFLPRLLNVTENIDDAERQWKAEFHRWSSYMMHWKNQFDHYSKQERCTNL
Sequence of huBuChE (P06276 29-602): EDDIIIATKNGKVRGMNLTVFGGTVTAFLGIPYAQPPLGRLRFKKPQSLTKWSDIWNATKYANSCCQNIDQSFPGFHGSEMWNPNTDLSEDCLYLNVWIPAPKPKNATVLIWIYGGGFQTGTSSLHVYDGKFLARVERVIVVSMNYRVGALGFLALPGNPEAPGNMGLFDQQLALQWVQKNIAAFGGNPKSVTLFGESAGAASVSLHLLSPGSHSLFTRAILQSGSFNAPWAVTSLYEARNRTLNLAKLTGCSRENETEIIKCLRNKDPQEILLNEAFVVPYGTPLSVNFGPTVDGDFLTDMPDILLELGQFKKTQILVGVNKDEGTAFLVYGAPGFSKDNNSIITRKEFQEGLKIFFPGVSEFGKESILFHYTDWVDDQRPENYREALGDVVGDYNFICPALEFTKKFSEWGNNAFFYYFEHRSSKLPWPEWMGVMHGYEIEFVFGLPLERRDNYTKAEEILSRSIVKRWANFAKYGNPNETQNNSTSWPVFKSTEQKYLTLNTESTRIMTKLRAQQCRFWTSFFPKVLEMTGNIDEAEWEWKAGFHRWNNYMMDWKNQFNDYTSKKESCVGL
Sequence of huAChE (P22303 32-617 isoform P22303-2 limits assumed): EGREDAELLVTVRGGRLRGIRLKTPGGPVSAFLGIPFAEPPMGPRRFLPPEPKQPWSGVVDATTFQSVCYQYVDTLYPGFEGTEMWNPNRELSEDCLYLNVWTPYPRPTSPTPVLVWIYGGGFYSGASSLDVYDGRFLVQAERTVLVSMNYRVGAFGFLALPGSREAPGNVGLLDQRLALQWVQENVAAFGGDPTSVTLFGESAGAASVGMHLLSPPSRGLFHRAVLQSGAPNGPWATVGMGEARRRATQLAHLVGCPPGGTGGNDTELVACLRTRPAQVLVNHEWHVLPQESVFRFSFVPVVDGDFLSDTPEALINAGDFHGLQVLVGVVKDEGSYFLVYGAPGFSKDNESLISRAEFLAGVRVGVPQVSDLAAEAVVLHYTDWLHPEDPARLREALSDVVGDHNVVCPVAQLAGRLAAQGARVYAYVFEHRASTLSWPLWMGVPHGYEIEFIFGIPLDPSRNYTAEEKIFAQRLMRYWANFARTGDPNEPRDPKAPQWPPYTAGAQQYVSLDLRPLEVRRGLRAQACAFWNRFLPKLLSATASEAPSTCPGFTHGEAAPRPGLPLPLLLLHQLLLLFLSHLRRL
Sequence of eqBuChE (P81908 whole entry): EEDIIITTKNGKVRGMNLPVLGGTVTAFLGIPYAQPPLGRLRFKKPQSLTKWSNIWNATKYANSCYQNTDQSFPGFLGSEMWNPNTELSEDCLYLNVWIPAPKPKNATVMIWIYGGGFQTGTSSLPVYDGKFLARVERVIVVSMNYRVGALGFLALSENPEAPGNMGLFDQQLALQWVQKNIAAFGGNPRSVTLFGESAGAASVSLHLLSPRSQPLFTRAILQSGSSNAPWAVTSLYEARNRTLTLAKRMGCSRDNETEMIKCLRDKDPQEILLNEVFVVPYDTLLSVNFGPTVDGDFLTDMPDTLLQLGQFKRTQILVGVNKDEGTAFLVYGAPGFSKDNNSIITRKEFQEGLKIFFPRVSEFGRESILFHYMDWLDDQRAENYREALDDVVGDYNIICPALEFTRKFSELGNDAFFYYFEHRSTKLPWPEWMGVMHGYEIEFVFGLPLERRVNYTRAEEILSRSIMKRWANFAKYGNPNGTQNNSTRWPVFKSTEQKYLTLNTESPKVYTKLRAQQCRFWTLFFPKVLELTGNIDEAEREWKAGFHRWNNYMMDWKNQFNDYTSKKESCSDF

| SMILES | IC50 [2] | IC50 [4] | SI [4] | other results |
| --- | --- | --- | --- | --- |
| COc1cc(CCC(=O)N2CCC(Cc3ccccc3)CC2)ccc1OCCCCN1CCc2ccccc2C1 [8d] | 6.2 ± 0.12 µM | 0.087 ± 0.002 µM | 71 | IC50 [1]: 0.097 µM; SI [1]: 89; IC50 [3]: 8.6 ± 0.33 µM |
| COc1cc(CCC(=O)N2CCC(Cc3ccccc3)CC2)ccc1OCCCCN1CCC(Cc2ccccc2)CC1 [8a] | 1.7 ± 0.01 µM | 0.093 ± 0.005 µM | 18 | IC50 [1]: 0.16 ± 0.43 µM; SI [1]: 37; IC50 [3]: 5.9 ± 0.26 µM |
| CCN(CCCCCOc1ccc(CCC(=O)N2CCC(Cc3ccccc3)CC2)cc1OC)Cc1ccccc1 [10c] | 6.2 ± 0.12 µM | 0.077 ± 0.002 µM | 81 | IC50 [1]: 0.11 µM; SI [1]: 78; IC50 [3]: 8.6 ± 0.33 µM |
| CCN(CCCCCCCCCCOc1ccc(CCC(=O)N2CCC(Cc3ccccc3)CC2)cc1OC)Cc1ccccc1 [10f] | 4.7 ± 0.28 µM | 0.59 ± 0.08 µM | 8.0 | – |
| COc1cc(C(=O)N2CCC(Cc3ccccc3)CC2)ccc1OCCCCN1CCC(CCCc2ccccc2)CC1 [7c] | 3.4 ± 0.13 µM | 1.1 ± 0.06 µM | 3.1 | – |
| COc1cc(CCC(=O)N2CCC(Cc3ccccc3)CC2)ccc1OCCCCN1CCN(Cc2ccccc2)CC1 [8b] | 5.8 ± 0.35 µM | 3.3 ± 0.13 µM | 1.8 | – |
| COc1cc(C(=O)N2CCC(Cc3ccccc3)CC2)ccc1OCCCCN1CCC(Cc2ccccc2)CC1 [7a] | 5.9 ± 0.36 µM | 0.66 ± 0.03 µM | 8.9 | – |
| COc1cc(CCC(=O)N2CCC(Cc3ccccc3)CC2)ccc1OCCCCN1CCC(c2noc3ccccc23)CC1 [8k] | 5.5 ± 0.23 µM | 0.25 ± 0.02 µM | 22 | – |
| COc1cc(C(=O)N2CCC(Cc3ccccc3)CC2)ccc1OCCCCN1CCN(Cc2ccccc2)CC1 [7b] | 7.9 ± 0.25 µM | 3.1 ± 0.12 µM | 2.5 | – |
| COc1cc(CCC(=O)N2CCC(Cc3ccccc3)CC2)ccc1OC(=O)CCCCN1CCN(Cc2ccccc2)CC1 [9b] | 1.9 ± 0.11 µM | 1.7 ± 0.06 µM | 1.1 | – |
| COc1cc(C(=O)N2CCC(Cc3ccccc3)CC2)ccc1OCCCCN1CC(C)CC(C)C1 (stereo not shown) [7g] | 2.3 ± 0.12 µM | 3.7 ± 0.24 µM | 0.6 | – |
| CCN(CCCCCCOc1ccc(CCC(=O)N2CCC(Cc3ccccc3)CC2)cc1OC)Cc1ccccc1 [10d] | 4.6 ± 0.03 µM | 0.12 ± 0.003 µM | 38 | – |
| CCN(CCCOc1ccc(CCC(=O)N2CCC(Cc3ccccc3)CC2)cc1OC)Cc1ccccc1 [10b] | 8.7 ± 0.01 µM | 0.068 ± 0.005 µM | 128 | IC50 [1]: 0.091 ± 0.008 µM; SI [1]: 65; IC50 [3]: 5.9 ± 0.26 µM |
| COc1cc(CCC(=O)N2CCC(Cc3ccccc3)CC2)ccc1OCCCCN1CCC(C(=O)c2ccc(F)cc2)CC1 [8j] | 4.9 ± 0.18 µM | 0.31 ± 0.12 µM | 16 | – |
| CCN(CCCCOc1ccc(C(=O)N2CCC(Cc3ccccc3)CC2)cc1OC)Cc1ccccc1 [7e] | 2.8 ± 0.13 µM | 0.47 ± 0.05 µM | 6.0 | IC50 [1]: 0.87 ± 0.23 µM; SI [1]: 4.5; IC50 [3]: 3.9 ± 0.44 µM |
| COc1cc(CCC(=O)N2CCC(Cc3ccccc3)CC2)ccc1OCCCCN1CC(C)CC(C)C1 (stereo not shown) [8g] | 6.5 ± 0.33 µM | 0.75 ± 0.02 µM | 8.7 | – |
| COc1cc(CCC(=O)N2CCC(Cc3ccccc3)CC2)ccc1OCCCCN1CCC(c2ccccc2)CC1 [8h] | 4.7 ± 0.28 µM | 0.13 ± 0.08 µM | 36 | IC50 [1]: 0.19 ± 0.19 µM; SI [1]: 36; IC50 [3]: 6.9 ± 0.14 µM |
| CCN(CCCCOc1c(OC)cc(C(=O)N2CCN(c3ccc(F)cc3)CC2)cc1OC)Cc1ccccc1 [7j] | 6.9 ± 0.04 µM | 6.3 ± 0.32 µM | 1.1 | – |
| COc1cc(CCC(=O)N2CCC(Cc3ccccc3)CC2)ccc1OC(=O)CCCCN1CCC(Cc2ccccc2)CC1 [9a] | 7.1 ± 0.15 µM | 0.82 ± 0.03 µM | 8.7 | – |
| COc1cc(C(=O)N2CCC(Cc3ccccc3)CC2)ccc1OCCCCN1CCc2ccccc2C1 [7d] | 3.1 ± 0.15 µM | 0.85 ± 0.02 µM | 3.6 | – |
| COc1cc(CCC(=O)N2CCC(Cc3ccccc3)CC2)ccc1OCCCCN1CCC(CCCc2ccccc2)CC1 [8c] | 4.2 ± 0.26 µM | 0.063 ± 0.005 µM | 67 | IC50 [1]: 0.082 ± 0.007 µM; SI [1]: 82; IC50 [3]: 6.7 ± 0.16 µM |
| CCN(CCOc1ccc(CCC(=O)N2CCC(Cc3ccccc3)CC2)cc1OC)Cc1ccccc1 [10a] | 3.6 ± 0.02 µM | 0.22 ± 0.03 µM | 16 | – |
| CCN(CCCCCCCCCOc1ccc(CCC(=O)N2CCC(Cc3ccccc3)CC2)cc1OC)Cc1ccccc1 [10e] | 8.4 ± 0.53 µM | 0.28 ± 0.02 µM | 30 | – |
| CCN(CCCCOc1c(OC)cc(C(=O)NC2CCN(Cc3ccccc3)CC2)cc1OC)Cc1ccccc1 [7i] | 5.7 ± 0.03 µM | 2.6 ± 0.12 µM | 2.2 | – |
| COc1cc2c(cc1OC)C(=O)C(CC1CCN(Cc3ccccc3)CC1)C2 (stereo not shown) [Donepezil] | – | – | – | ACh levels ([5]; ELISA, cerebral cortex): remarkable increase; Aβ1–42 levels ([5]; ELISA, cerebral cortex): significantly reduced; IL-1β levels ([5]; ELISA, cerebral cortex): significantly reduced; IL-6 levels ([5]; ELISA, cerebral cortex): significantly reduced; TNF-α levels ([5]; ELISA, cerebral cortex): significantly reduced; neuronal abnormalities within cerebral cortex and hippocampus ([5]; HE staining, donepezil 2 mg/kg, 8e 2.6 mg/kg): marked decrease; escape latency ([5]; MWM, vs model group): significantly decreased; Aβ1–42 levels ([5]; immunofluorescence staining, cerebral cortex, donepezil 2.0 mg/kg, 8e 2.6 mg/kg): significant reduction; TG levels ([5]; plasma): significant decrease; LDL-c levels [5, 9]: significantly reduced; TC levels [5, 9]: significantly reduced; latency time ([6]; 5.0 mg/kg): 163.87 s; number of errors ([6]; 5.0 mg/kg): 0.1; neuronal apoptosis in the hippocampus ([6]; TUNEL staining, donepezil 5.0 mg/kg, 8e 6.5 mg/kg): significantly reduced; levels of IL-1β, IL-6, and TNF-α in the cerebral cortex ([6]; immunohistochemistry, donepezil 5.0 mg/kg, 8e 6.5 mg/kg): significant reduction; number of apoptotic cells ([7]; HE staining, 8e 0.1, 0.25, and 0.5 μg/mL): significantly reduced; swimming distance/swimming speed ([7]; 8e 0.1 and 0.25 μg/mL): significantly increased; reaction capacity ([7]; 8e 0.1 and 0.25 μg/mL, transition from dark to light): significantly enhanced |
| COc1cc(CCC(=O)N2CCC(Cc3ccccc3)CC2)ccc1OC(=O)CCCCN1CCC(CCCc2ccccc2)CC1 [9c] | 8.1 ± 0.43 µM | 0.73 ± 0.23 µM | 11 | – |
| CCN(CC)CCCCOc1ccc(CCC(=O)N2CCC(Cc3ccccc3)CC2)cc1OC [8f] | 8.4 ± 0.53 µM | 0.28 ± 0.02 µM | 30 | – |
| CCN(CC)CCCCOc1ccc(C(=O)N2CCC(Cc3ccccc3)CC2)cc1OC [7f] | 8.6 ± 0.32 µM | 6.4 ± 0.24 µM | 1.3 | – |
| CCN(C)C(=O)Oc1cccc([C@H](C)N(C)C)c1 [Rivastigmine] | – | – | – | recovery of BuChE activity / reversibility [8]: remained relatively unchanged |
